Columns and labels:
Oryza sativa [1] = assay: Table 14 greenhouse trial, treatment at the 3-4 leaf stage: rice damage; assay type: in vivo; conditions: 21 days after application
Experimental: (§1) Seeds or rhizome pieces of mono- and dicotyledonous weed plants are placed into sandy loam soil in plastic pots, covered with soil and grown in a greenhouse under good growth conditions (temperature, atmospheric humidity, water supply). Weeds which are encountered in the cultivation of rice are cultivated in pots in which the water level is up to 2 cm over the soil surface. Three weeks after sowing, the test plants are treated at the three-leaf stage. The active compound combinations according to the invention, formulated as wettable powders or emulsion concentrates, and, in parallel experiments, the correspondingly formulated individual active compounds are sprayed onto the green parts of the plants at different dosages using an amount of water of 300 to 600 l/ha (converted), and, after about 3 to 4 weeks of the test plants in the greenhouse under optimum growth conditions (temperature, atmospheric humidity, water supply), the effect of the preparations is evaluated visually in comparison to untreated controls. In the case of rice or weeds which are encountered in the cultivation of rice, the active compounds are also added directly to the water for irrigation (application analogous to the so-called granules application) or sprayed onto plants and added to the water for irrigation. The experiments were designed with several, up to five, repetitions. The herbicidal compositions according to the invention also have good herbicidal post-emergence activity against a broad spectrum of economically important weed grasses and broad-leaved weeds.
(§2) Greenhouse trial: Treatment at the 3-4 leaf stage, evaluation 21 days after the application.

Sagittaria pygmaea = assay: Table 14 greenhouse trial, treatment at the 3-4 leaf stage: weed control; assay type: in vivo; conditions: 21 days after application
Experimental: as §1, §2

[2] = tested on: Oryza sativa (paddy rice); assay: Table 1: damage to paddy rice; assay type: in vivo
Experimental: (§6) The examples mentioned below were carried out in the greenhouse, and in some instances, in field trials.

Cucumis dipsaceus = assay: Table 1: weed control by A1*), safener C3-1) and combination; assay type: in vivo
Experimental: as §6

Oryza sativa [3] = assay: Table 10 greenhouse trial, treatment at the 1-2 leaf stage: rice damage; assay type: in vivo; conditions: greenhouse trial, 20 days after application
Experimental: as §1
(§3) Greenhouse trial: Treatment at the 1-2 leaf stage, evaluation 20 days after the application.

Scirpus juncoides = assay: Table 10 greenhouse trial, treatment at the 1-2 leaf stage: weed control; assay type: in vivo; conditions: 20 days after application
Experimental: as §1, §3

Echinochloa crusgalli [4] = assay: Table 18 field trial, treatment at the 1-2 leaf stage: weed control; assay type: in vivo; conditions: 30 g of ai/ha, 14 days after application
Source text: (§4) Field trial: Treatment at the 1-2 leaf stage, evaluation 14 days after the application.

Echinochloa crusgalli [5] = assay: Table 4 field trial: weed control; assay type: in vivo
Experimental: as §6

Oryza sativa [6] = assay: Table 4 field trial: rice damage
Experimental: as §6

Oryza sativa [7] = assay: Table 18 field trial, treatment at the 1-2 leaf stage: rice damage; assay type: in vivo; conditions: 30 g of ai/ha, 14 days after application
Source text: as §4

Oryza sativa [8] = assay: Table 5 field trial, treatment at the 2-4 leaf stage rice: rice damage; assay type: in vivo; conditions: evaluation after 28 days
Experimental: as §6

Echinochloa crusgalli [9] = assay: Table 5 field trial, treatment at the 2-4 leaf stage rice: weed control; assay type: in vivo; conditions: evaluation after 28 days
Experimental: as §6

Echinochloa crusgalli [10] = assay: Table 9 greenhouse trial, treatment at the 1-2 leaf stage: weed control; assay type: in vivo; conditions: 22 days after application
Experimental: as §1
(§5) Greenhouse trial: Treatment at the 1-2 leaf stage, evaluation 22 days after the application.

Oryza sativa [11] = assay: Table 9 greenhouse trial, treatment at the 1-2 leaf stage: rice damage; assay type: in vivo; conditions: 22 days after application
Experimental: as §1, §5

Work on CC1=C(c2ccccc2)C(=O)N(C(C)(C)c2cc(Cl)cc(Cl)c2)CO1 [B73), oxaziclomefone] yielded an ORYSW % damage (Oryza sativa [1]; 50 g of ai/ha) of 0%, an ORYSW % damage (Oryza sativa [1]; 100 g of ai/ha) of 0% and an ORYSW % damage (Oryza sativa [1]; 200 g of ai/ha) of 5%. For the same molecule, the SAGPY % control (Sagittaria pygmaea; 50 g of ai/ha) was 10%, the SAGPY % control (Sagittaria pygmaea; 100 g of ai/ha) was 15% and the SAGPY % control (Sagittaria pygmaea; 200 g of ai/ha) was 20%.
CCOC(=O)C1=NOC(c2ccccc2)(c2ccccc2)C1 [C3-1), ethyl 5,5-diphenyl-2-isoxazoline-3-carboxylate] gave an ORYSW % damage ([2]; 15 g of ai/ha) of 0%, an ORYSW % damage ([2]; 30 g of ai/ha) of 0% and an ORYSW % damage ([2]; 60 g of ai/ha) of 0%. For the same molecule, the CUMDI % control (Cucumis dipsaceus; 15 g of ai/ha) was 0%, the CUMDI % control (Cucumis dipsaceus; 30 g of ai/ha) was 0% and the CUMDI % control (Cucumis dipsaceus; 60 g of ai/ha) was 0%.
COc1cc(OC)nc(NC(=O)NS(=O)(=O)Cc2ccccc2C(=O)O)n1 [B58), 2-[[[[[(4,6-dimethoxy-2-pyrimidinyl)amino]carbonyl]-amino]sulfonyl]methyl]benzoic acid] showed an ORYSW % damage (Oryza sativa [3]; 7.5 g of ai/ha) of 0%, an ORYSW % damage (Oryza sativa [3]; 15 g of ai/ha) of 0% and an ORYSW % damage (Oryza sativa [3]; 30 g of ai/ha) of 2%. The ORYSW % damage (Oryza sativa [3]; 60 g of ai/ha) was 5%, the SCIJU % control (Scirpus juncoides; 7.5 g of ai/ha) was 35% and the SCIJU % control (Scirpus juncoides; 15 g of ai/ha) was 40%. The SCIJU % control (Scirpus juncoides; 30 g of ai/ha) was 55% and the SCIJU % control (Scirpus juncoides; 60 g of ai/ha) was 60%.
For C[C@@H](Oc1ccc(Oc2nc3ccc(Cl)cc3o2)cc1)C(=O)O [B20), (R)-2-[4-(6-chloro-1,3-benzoxazol-2-yloxy)phenoxy]-propionic acid], the ECHCG % control (Echinochloa crusgalli [4]) was 75%, the ECHCG % control (Echinochloa crusgalli [5]; 10 g of ai/ha) was 0% and the ECHCG % control (Echinochloa crusgalli [5]; 20 g of ai/ha) was 0%. It also gave an ORYSW % damage (Oryza sativa [6]; 10 g of ai/ha) of 0%, an ORYSW % damage (Oryza sativa [6]; 20 g of ai/ha) of 0% and an ORYSW % damage (Oryza sativa [7]) of 0%.
Molecule COP(=S)(OC)SCC(=O)N(c1ccc(Cl)cc1)C(C)C [B19), S-[2-[(4-chlorophenyl)(1-methylethyl)amino]-2-oxo-ethyl]O,O-dimethylphosphorodithioate] has an ORYSW % damage (Oryza sativa [8]; 250 g of ai/ha) of 2%, an ORYSW % damage (Oryza sativa [8]; 500 g of ai/ha) of 10% and an ECHCG % control (Echinochloa crusgalli [9]; 250 g of ai/ha) of 30%. The ECHCG % control (Echinochloa crusgalli [9]; 500 g of ai/ha) was 40%.
For COc1cc(OC)nc(Oc2cccc(Oc3nc(OC)cc(OC)n3)c2C(=O)O)n1 [B48), sodium 2,6-bis[(4,6-dimethoxypyrimidin-2-yl)oxy]-benzoate], the ECHCG % control (Echinochloa crusgalli [10]; 19 g of ai/ha) was 15%, the ECHCG % control (Echinochloa crusgalli [10]; 38 g of ai/ha) was 30% and the ECHCG % control (Echinochloa crusgalli [10]; 75 g of ai/ha) was 40%. For the same molecule, the ORYSW % damage (Oryza sativa [11]; 19 g of ai/ha) was 0%, the ORYSW % damage (Oryza sativa [11]; 38 g of ai/ha) was 0% and the ORYSW % damage (Oryza sativa [11]; 75 g of ai/ha) was 5%.
O=C(O)c1c(Cl)ccc2cc(Cl)cnc12 [B13), 3,7-dichloro-8-quinolincarboxylic acid] gave an ORYSW % damage (Oryza sativa [1]; 250 g of ai/ha) of 0%, an ORYSW % damage (Oryza sativa [1]; 500 g of ai/ha) of 0% and an ORYSW % damage (Oryza sativa [1]; 1000 g of ai/ha) of 0%. The SAGPY % control (Sagittaria pygmaea; 250 g of ai/ha) was 30%, the SAGPY % control (Sagittaria pygmaea; 500 g of ai/ha) was 30% and the SAGPY % control (Sagittaria pygmaea; 1000 g of ai/ha) was 30%.

— patent US6864217B2, “Herbicidal compositions with substituted phenylsulfonylureas for controlling weeds in rice” (Hoechst Schering AgrEvo GmbH, priority 1998, dated 2005)
